In the supplement of paper PMC10627819:

How the values were obtained:
B. subtilis 168 [1] = experiment: fitness (endpoint OD595 vs no drug) (fraction); higher = more growth
How it was run: (§1)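 Each well of a 384-well plate received 30 µl of culture at OD595 0.01, or 55 µl for S. pneumoniae. TSB, LB Lennox or CY served as media at 37 °C. OD595 was taken every 30 min for 14 h and corrected by subtracting the first reading. Fitness is the optical density at stationary-phase entry divided by the robust mean of no-drug controls, capped at 1.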

S. aureus Newman [2] = experiment: as above
How it was run: as §1

B. subtilis 168 [3] = experiment: Bliss interaction score (quartile over a dose matrix) (fitness difference); higher = more antagonism (negative = synergy)
How it was run: (§2)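 Fitness was OD595 at entry into stationary phase divided by the plate's robust no-drug mean and capped at 1; single-drug fitness was inferred from combination data. The Bliss score is observed minus expected (product) fitness, summarised by quartiles over technical, biological and donor/recipient replicates.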

S. pneumoniae D39V [4] = experiment: as above
How it was run: as §2

S. aureus Newman [5] = experiment: as above
How it was run: as §2

S. aureus DSM 20231 = experiment: as above
How it was run: as §2

S. pneumoniae D39V [6] = experiment: fitness (endpoint OD595 vs no drug) (fraction); higher = more growth
How it was run: as §1
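For Bliss interaction score (quartile over a dose matrix) in this document: first quartile when negative (synergy) and third quartile when positive (antagonism).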

CC[C@H]1OC(=O)[C@H](C)[C@@H](O[C@H]2C[C@@](C)(OC)[C@@H](O)[C@H](C)O2)[C@H](C)[C@@H](O[C@@H]2O[C@H](C)C[C@H](N(C)C)[C@H]2O)[C@](C)(O)C[C@@H](C)CN(C)[C@H](C)[C@@H](O)[C@]1(C)O [Azithromycin] + O=C(O)c1cn(C2CC2)c2cc(N3CCNCC3)c(F)cc2c1=O [Ciprofloxacin]
fitness
Settings | first compound 0.125 µg/mL | first compound 0.25 µg/mL | first compound 0.5 µg/mL
B. subtilis 168 [1], partner 0.0098 µg/mL | – | 0.886 | –
B. subtilis 168 [1], partner 0.0195 µg/mL | – | 0.781 | 0.702
S. aureus Newman [2], partner 0.0375 µg/mL | 0.684 | 0.697 | 0.547
S. aureus Newman [2], partner 0.075 µg/mL | 0.631 | 0.697 | 0.581

B. subtilis 168 [1], first compound 2 µg/mL, one replicate
Settings | fitness
partner 0.0098 µg/mL | 0.428
partner 0.0195 µg/mL | 0.279
partner 0.039 µg/mL | 0.258

Settings | Bliss interaction score
B. subtilis 168 [3] | 0.228
S. aureus DSM 20231 | 0.105
S. aureus Newman [5] | 0.102
S. pneumoniae D39V [4] | -0.0524

CC1=C(C(=O)O)N2C(=O)[C@@H](NC(=O)[C@H](N)c3ccccc3)[C@H]2SC1 [Cephalexin] + CC1=C\[C@@H](O)CC(=O)Cc2nc(co2)C(=O)N2CCC=C2C(=O)O[C@H](C(C)C)[C@H](C)/C=C/C(=O)NC\C=C\1 [Virginiamycin M1]
fitness
Settings | first compound 0.125 µg/mL | first compound 0.25 µg/mL | first compound 0.5 µg/mL | first compound 1 µg/mL | first compound 4 µg/mL
B. subtilis 168 [1], partner 0.0625 µg/mL | 0.966 | 0.944 | 0.955 | – | –
B. subtilis 168 [1], partner 0.125 µg/mL | 0.944 | 0.926 | 0.99 | – | –
B. subtilis 168 [1], partner 0.25 µg/mL | 0.983 | 0.911 | 0.989 | – | –
S. aureus Newman [2], partner 0.0625 µg/mL | – | ≥ 1 | 0.994 | ≥ 1 | –
S. aureus Newman [2], partner 0.125 µg/mL | – | ≥ 1 | ≥ 1 | ≥ 1 | –
S. aureus Newman [2], partner 0.25 µg/mL | – | ≥ 1 | ≥ 1 | ≥ 1 | –
S. pneumoniae D39V [6], partner 2 µg/mL | – | – | – | 0.663 | 0.0521

fitness, one replicate
Settings | first compound 0.125 µg/mL | first compound 0.25 µg/mL | first compound 0.5 µg/mL | first compound 1 µg/mL | first compound 2 µg/mL | first compound 4 µg/mL
S. aureus Newman [2], partner 0.5 µg/mL | – | – | 0.847 | 0.951 | 0.986 | –
S. aureus Newman [2], partner 1 µg/mL | – | – | ≥ 1 | ≥ 1 | ≥ 1 | –
S. aureus Newman [2], partner 2 µg/mL | – | – | 0.936 | 0.923 | 0.978 | –
S. pneumoniae D39V [6], partner 0.15 µg/mL | – | – | – | 0.934 | 0.646 | 0.0743
S. pneumoniae D39V [6], partner 0.3 µg/mL | – | – | – | 0.885 | 0.628 | 0.0023
S. pneumoniae D39V [6], partner 0.5 µg/mL | 0.967 | 0.964 | ≥ 1 | 0.562 | 0.316 | 0.338
S. pneumoniae D39V [6], partner 1 µg/mL | 0.966 | 0.991 | ≥ 1 | 0.504 | 0.0366 | 0.0659
S. pneumoniae D39V [6], partner 2 µg/mL | 0.954 | ≥ 1 | ≥ 1 | – | – | –

Settings | Bliss interaction score
B. subtilis 168 [3] | 0.0598
S. aureus DSM 20231 | 0.0651
S. aureus Newman [5] | 0.023
S. pneumoniae D39V [4] | 0.16

CC1=C(C(=O)O)N2C(=O)[C@@H](NC(=O)[C@H](N)c3ccccc3)[C@H]2SC1 [Cephalexin] + CCN(CC)CCOC(=O)c1ccc(N)cc1 [Procaine]
fitness
Settings | first compound 0.125 µg/mL | first compound 0.25 µg/mL | first compound 0.5 µg/mL | first compound 1 µg/mL
B. subtilis 168 [1], partner 85.5 µg/mL | 0.925 | 0.911 | 0.904 | –
B. subtilis 168 [1], partner 171 µg/mL | 0.91 | 0.912 | 0.864 | –
B. subtilis 168 [1], partner 342 µg/mL | 0.879 | 0.875 | 0.869 | –
S. aureus Newman [2], partner 85.5 µg/mL | – | 0.952 | – | –
S. aureus Newman [2], partner 342 µg/mL | – | 0.966 | 0.987 | ≥ 1

fitness, S. pneumoniae D39V [6], one replicate
Settings | first compound 0.125 µg/mL | first compound 0.25 µg/mL | first compound 0.5 µg/mL | first compound 1 µg/mL | first compound 2 µg/mL | first compound 4 µg/mL
partner 85.5 µg/mL | ≥ 1 | ≥ 1 | ≥ 1 | 0.253 | 0.0329 | 0.0487
partner 171 µg/mL | 0.958 | 0.982 | ≥ 1 | 0.422 | 0.058 | 0.0569
partner 342 µg/mL | 0.962 | 0.997 | ≥ 1 | 0.395 | 0.0539 | 0.0475

Settings | Bliss interaction score
B. subtilis 168 [3] | 0.0569
S. aureus DSM 20231 | 0.0552
S. aureus Newman [5] | -0.0605
S. pneumoniae D39V [4] | -0.118
